Laboratory results taken from patent US20200239530A1, “COMPOUNDS AND METHODS OF MODULATING PROTEIN DEGRADATION” (Vividion Therapeutics, Inc., priority 2017, published 2020).

Key:
[1] = target: T1, ATP6V1A V-type proton ATPase catalytic subunit A (Homo sapiens, UniProt P38606); experiment: Cysteine liganding, probe competition; type: binding; settings: for Liganded: ATP6V1A Res# 277, uniprot P38606
T1 construct: 200 μL of lysate containing 5 mg/ml proteome was treated with 2 μL of 100× compound stock; endogenous in cells
T1 sequence (P38606 whole entry): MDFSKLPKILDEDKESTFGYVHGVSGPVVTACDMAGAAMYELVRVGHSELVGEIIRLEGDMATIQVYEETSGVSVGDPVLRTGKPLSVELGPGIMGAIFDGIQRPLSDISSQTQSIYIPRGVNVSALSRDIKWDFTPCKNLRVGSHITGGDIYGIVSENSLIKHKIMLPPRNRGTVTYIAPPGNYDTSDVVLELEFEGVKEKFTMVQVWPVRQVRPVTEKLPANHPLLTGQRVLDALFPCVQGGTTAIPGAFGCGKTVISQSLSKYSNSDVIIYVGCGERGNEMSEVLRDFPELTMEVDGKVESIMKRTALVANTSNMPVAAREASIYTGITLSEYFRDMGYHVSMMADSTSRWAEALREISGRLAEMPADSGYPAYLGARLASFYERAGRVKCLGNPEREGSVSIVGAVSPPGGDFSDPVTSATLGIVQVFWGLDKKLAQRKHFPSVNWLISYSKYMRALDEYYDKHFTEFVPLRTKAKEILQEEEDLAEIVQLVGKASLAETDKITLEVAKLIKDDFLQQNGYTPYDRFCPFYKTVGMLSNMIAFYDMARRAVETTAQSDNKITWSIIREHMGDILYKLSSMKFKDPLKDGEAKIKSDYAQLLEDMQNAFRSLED
In short: (§1)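 Read-out is loss of desthiobiotin iodoacetamide labelling at cysteines, measured on streptavidin-enriched tryptic peptides. Compound preincubation ran 1 hr at 25° C in PBS lysate holding 5 mg/ml proteome before the probe was added.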

[2] = target: T2, TRMT1L TRMT1-like protein (Homo sapiens, UniProt Q7Z2T5); experiment: Cysteine liganding, probe competition; type: binding
T2 construct: Cells were resuspended in cold PBS on ice and sonicated with a probe sonicator to achieve lysis; endogenous in cells
T2 sequence (Q7Z2T5 1-733): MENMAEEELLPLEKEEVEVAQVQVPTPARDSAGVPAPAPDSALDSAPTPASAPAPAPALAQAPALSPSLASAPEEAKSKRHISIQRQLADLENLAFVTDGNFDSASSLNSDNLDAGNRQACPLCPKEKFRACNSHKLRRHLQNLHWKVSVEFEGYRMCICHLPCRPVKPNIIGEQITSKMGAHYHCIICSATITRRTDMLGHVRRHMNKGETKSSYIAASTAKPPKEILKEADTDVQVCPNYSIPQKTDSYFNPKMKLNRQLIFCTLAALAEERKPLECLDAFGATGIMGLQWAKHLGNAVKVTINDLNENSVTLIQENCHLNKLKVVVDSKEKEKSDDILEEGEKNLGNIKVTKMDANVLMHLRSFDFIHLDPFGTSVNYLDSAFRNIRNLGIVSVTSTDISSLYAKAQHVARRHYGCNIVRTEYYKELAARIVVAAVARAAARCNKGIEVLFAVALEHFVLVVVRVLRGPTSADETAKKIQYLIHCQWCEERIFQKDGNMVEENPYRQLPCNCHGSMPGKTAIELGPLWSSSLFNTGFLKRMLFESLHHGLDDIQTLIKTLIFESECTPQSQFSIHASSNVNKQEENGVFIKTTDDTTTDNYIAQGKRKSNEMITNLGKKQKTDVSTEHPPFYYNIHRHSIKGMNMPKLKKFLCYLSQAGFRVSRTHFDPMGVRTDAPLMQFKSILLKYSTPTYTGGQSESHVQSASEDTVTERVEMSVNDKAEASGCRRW
In short: as §1

[3] = uniprot Q7Z2T5, in % (unit assumed)

Which Liganded [1] does the source give for `COc1ccc2c(c1)CCCN2C(=O)CCl` [KB02] here?
Its Liganded is “YES”.

And the Liganded ([2]; TRMT1L Res# 239, uniprot Q7Z2T5)?
The Liganded was “YES”.

How did the Liganded [1] turn out when `O=C(CCl)Nc1cc(C(F)(F)F)cc(C(F)(F)F)c1` [KBO3] was run?
The Liganded was “YES”.

And the “100 Max” value ([1]; uniprot P38606)?
Its value is 27.98.

And the 100 ave ([1]; uniprot P38606)?
The 100 ave was 18.165.

What about the “500 Max” value ([1]; uniprot P38606) of the same compound?
Its value is 76.55.

And the 500 ave ([1]; uniprot P38606)?
The 500 ave was 69.985.

What about the 100 ave ([2]; uniprot Q7Z2T5) of the same compound?
The 100 ave was −17.83.

What about the 500 ave ([2]; uniprot Q7Z2T5) of the same compound?
Its 500 ave is 36.38.

And the “100 Max” value [2, 3]?
The value was −4.62.

What about the “500 Max” value [2, 3] of the same compound?
Its value is 36.38.
